# Activity calls are given as the source filed them. No cut-off for these calls is given here.
# How the values were obtained:
# Tubulin (Homo sapiens) [1] = target: T1, Tubulin (Homo sapiens) (UniProt P68371+Q9H4B7+P0DPH7+P68366+Q13509+Q71U36+P04350+Q3ZCM7+P07437+P68363+Q9BQE3+Q6PEY2+Q13885+Q9BVA1+Q9BUF5); test: Binding affinity to tubulin (unknown origin) at colchicine binding site assessed as tubulin-colchicine complex competition rate at 1.25 uM preincubated for 45 mins followed by colchicine addition by fluorescence based assay relative to control; type: protein-complex assay
# 4T1 [2] = test: Antitumor activity against mouse 4T1 cells allografted in Balb/c mouse assessed as tumor weight at 10 mg/kg, iv administered every other day measured after 12 days (reference value: 448 mg); type: functional; conditions: time 12 day
# SGC-7901 [3] = test: Induction of cell cycle arrest in human SGC-7901 cells assessed as accumulation at G2/M phase at 2 times IC50 incubated for 72 hrs by PI/RNase staining based flow cytometry (reference value: 10 %); type: functional
# SGC-7901 [4] = test: Induction of cell cycle arrest in human SGC-7901 cells assessed as accumulation at S phase at 2 times IC50 incubated for 12 hrs by PI/RNase staining based flow cytometry (reference value: 46 %); type: functional
# MCF7 = test: Antiproliferative activity against human MCF7 cells assessed as cell growth inhibition incubated for 72 hrs by MTT assay; type: functional, cell-based; conditions: MCF7, 72 h
# SGC-7901 [5] = test: Induction of cell cycle arrest in human SGC-7901 cells assessed as accumulation at S phase at 2 times IC50 incubated for 72 hrs by PI/RNase staining based flow cytometry (reference value: 46 %); type: functional
# SGC-7901 [6] = test: Induction of cell cycle arrest in human SGC-7901 cells assessed as accumulation at sub-G1 phase at 2 times IC50 incubated for 48 hrs by PI/RNase staining based flow cytometry (reference value: 2 %); type: functional
# Tubulin (Homo sapiens) [7] = target: T1, Tubulin (Homo sapiens); test: Disruption of microtubule organization in human SGC-7901 cells assessed as shrinkage of microtubule network around nucleus at 2 times IC50 incubated for 12 hrs by […] based analysis; type: cell-based
# SGC-7901 [8] = test: Induction of cell cycle arrest in human SGC-7901 cells assessed as accumulation at sub-G1 phase at 2 times IC50 incubated for 12 hrs by PI/RNase staining based flow cytometry (reference value: 2 %); type: functional
# [9] = Toxicity in Balb/c mouse allografted with mouse 4T1 cells assessed as decrease in body weight at 20 mg/kg, iv administered every other day measured for 12 days; type: organism-based; conditions: in vivo, 288 h, time 12 day
# SGC-7901 [10] = test: Induction of cell cycle arrest in human SGC-7901 cells assessed as accumulation at sub-G1 phase at 2 times IC50 incubated for 6 hrs by PI/RNase staining based flow cytometry (reference value: 2 %); type: functional
# 4T1 [11] = test: Antitumor activity against mouse 4T1 cells allografted in Balb/c mouse assessed as decrease in tumor volume at 20 mg/kg, iv administered every other day measured for 12 days; type: functional, organism-based; conditions: time 12.0 day
# 4T1 [12] = test: Antitumor activity against mouse 4T1 cells allografted in Balb/c mouse assessed as tumor weight at 5 mg/kg, iv administered every other day measured after 12 days (reference value: 448 mg); type: functional; conditions: time 12 day
# SGC-7901 [13] = test: Induction of cell cycle arrest in human SGC-7901 cells assessed as accumulation at S phase at 2 times IC50 incubated for 48 hrs by PI/RNase staining based flow cytometry (reference value: 46 %); type: functional
# 4T1 [14] = test: Antitumor activity against mouse 4T1 cells allografted in Balb/c mouse assessed as tumor growth inhibition at 20 mg/kg, iv administered every other day measured for 12 days relative to control; type: functional; conditions: 4T1, 288 h, time 12 day, read-out: TGI
# SGC-7901 [15] = test: Induction of cell cycle arrest in human SGC-7901 cells assessed as accumulation at G2/M phase at 2 times IC50 incubated for 6 hrs by PI/RNase staining based flow cytometry (reference value: 10 %); type: functional
# SGC-7901 [16] = test: Induction of cell cycle arrest in human SGC-7901 cells assessed as accumulation at G0/G1 phase at 2 times IC50 incubated for 12 hrs by PI/RNase staining based flow cytometry (reference value: 42 %); type: functional
# SGC-7901 [17] = test: Induction of cell cycle arrest in human SGC-7901 cells assessed as accumulation at G2/M phase at 2 times IC50 incubated for 24 hrs by PI/RNase staining based flow cytometry (reference value: 10 %); type: functional
# SGC-7901 [18] = test: Induction of cell cycle arrest in human SGC-7901 cells assessed as accumulation at G2/M phase at 2 times IC50 incubated for 48 hrs by PI/RNase staining based flow cytometry (reference value: 10 %); type: functional
# 4T1 [19] = test: Cytotoxicity against mouse 4T1 cells assessed as cell growth inhibition incubated for 72 hrs by MTT assay; type: functional, cell-based; conditions: 4T1, 72 h
# SGC-7901 [20] = test: Induction of cell cycle arrest in human SGC-7901 cells assessed as accumulation at S phase at 2 times IC50 incubated for 6 hrs by PI/RNase staining based flow cytometry (reference value: 46 %); type: functional
# SGC-7901 [21] = test: Induction of cell cycle arrest in human SGC-7901 cells assessed as accumulation at G0/G1 phase at 2 times IC50 incubated for 6 hrs by PI/RNase staining based flow cytometry (reference value: 42 %); type: functional
# 4T1 [22] = test: Antitumor activity against mouse 4T1 cells allografted in Balb/c mouse assessed as tumor weight at 20 mg/kg, iv administered every other day measured after 12 days (reference value: 448 mg); type: functional; conditions: time 12 day
# HT-1080 = test: Antiproliferative activity against human HT-1080 cells assessed as cell growth inhibition incubated for 72 hrs by MTT assay; type: functional, cell-based; conditions: HT-1080, 72 h
# SGC-7901 [23] = test: Induction of cell cycle arrest in human SGC-7901 cells assessed as accumulation at sub-G1 phase at 2 times IC50 incubated for 24 hrs by PI/RNase staining based flow cytometry (reference value: 2 %); type: functional
# [24] = Cytotoxicity against HUVEC cells assessed as cell growth inhibition incubated for 72 hrs by MTT assay; type: toxicity, cell-based; conditions: human
# SGC-7901 [25] = test: Induction of cell cycle arrest in human SGC-7901 cells assessed as accumulation at G0/G1 phase at 2 times IC50 incubated for 24 hrs by PI/RNase staining based flow cytometry (reference value: 42 %); type: functional
# SGC-7901 [26] = test: Induction of cell cycle arrest in human SGC-7901 cells assessed as accumulation at G0/G1 phase at 2 times IC50 incubated for 48 hrs by PI/RNase staining based flow cytometry (reference value: 42 %); type: functional
# 4T1 [27] = test: Antitumor activity against mouse 4T1 cells allografted in Balb/c mouse assessed as tumor growth inhibition at 10 mg/kg, iv administered every other day measured for 12 days relative to control; type: functional; conditions: 4T1, 288 h, time 12 day, read-out: TGI
# 4T1 [28] = test: Antitumor activity against mouse 4T1 cells allografted in Balb/c mouse assessed as tumor growth inhibition at 5 mg/kg, iv administered every other day measured for 12 days relative to control; type: functional; conditions: 4T1, 288 h, time 12 day, read-out: TGI
# SGC-7901 [29] = test: Induction of cell cycle arrest in human SGC-7901 cells assessed as accumulation at G2/M phase at 2 times IC50 incubated for 12 hrs by PI/RNase staining based flow cytometry (reference value: 10 %); type: functional
# [30] = Selectivity index, ratio of IC50 for HUVEC cells to IC50 for human SGC-7901 cells; type: functional
# SGC-7901 [31] = test: Induction of cell cycle arrest in human SGC-7901 cells assessed as accumulation at S phase at 2 times IC50 incubated for 24 hrs by PI/RNase staining based flow cytometry (reference value: 46 %); type: functional
# SGC-7901 [32] = test: Induction of cell cycle arrest in human SGC-7901 cells assessed as accumulation at sub-G1 phase at 2 times IC50 incubated for 72 hrs by PI/RNase staining based flow cytometry (reference value: 2 %); type: functional
# Tubulin = test: (§1) Inhibition of tubulin polymerization (unknown origin) by fluorescence based assay; type: protein-complex assay, Homo sapiens
# Tubulin (Homo sapiens) [33] = target: T1, Tubulin (Homo sapiens); test: as §1; type: protein-complex assay
# SGC-7901 [34] = test: Antiproliferative activity against human SGC-7901 cells assessed as cell growth inhibition incubated for 72 hrs by MTT assay; type: functional, cell-based; conditions: SGC-7901, 72 h
smiles,measurement,setting,value
COc1cc(-c2nc3scc(-c4cc(Cl)cc(Cl)c4)n3n2)cc(OC)c1OC,Activity,Tubulin (Homo sapiens) [1],37.9%
same,Activity,4T1 [2],187.74 mg
same,Activity,SGC-7901 [3],4%
same,Activity,SGC-7901 [4],31%
same,IC50,MCF7,2130 nM
same,Activity,SGC-7901 [5],3%
same,Activity,SGC-7901 [6],69%
same,Activity,Tubulin (Homo sapiens) [7],Active
same,Activity,SGC-7901 [8],17%
same,Activity,[9],Non-Toxic
same,Activity,SGC-7901 [10],2%
same,Activity,4T1 [11],Active
same,Activity,4T1 [12],227.5 mg
same,Activity,SGC-7901 [13],8%
same,inhibition in vivo at 20 mg/kg,4T1 [14],84%
same,Activity,SGC-7901 [15],13%
same,Activity,SGC-7901 [16],21%
same,Activity,SGC-7901 [17],42%
same,Activity,SGC-7901 [18],19%
same,IC50,4T1 [19],341 nM
same,Activity,SGC-7901 [20],49%
same,Activity,SGC-7901 [21],36%
same,Activity,4T1 [22],71.76 mg
same,IC50,HT-1080,1180 nM
same,Activity,SGC-7901 [23],21%
same,IC50 at 72 h,[24],13200 nM
same,Activity,SGC-7901 [25],16%
same,Activity,SGC-7901 [26],4%
same,inhibition in vivo at 10 mg/kg,4T1 [27],58.1%
same,inhibition in vivo at 5 mg/kg,4T1 [28],49.2%
same,Activity,SGC-7901 [29],31%
same,Ratio IC50,[30],62.62
same,Activity,SGC-7901 [31],21%
same,Activity,SGC-7901 [32],93%
same,IC50,Tubulin,6870 nM
same,inhibition,Tubulin (Homo sapiens) [33],Dose-Dependent Effect
same,IC50,SGC-7901 [34],210 nM

# — ChEMBL document CHEMBL5370543, “Discovery of 6-aryl-2-(3,4,5-trimethoxyphenyl)thiazole[3,2-b][1,2,4]triazoles as potent tubulin polymerization inhibitors” (Eur J Med Chem, 2023)
